Source: ChEMBL document CHEMBL1629662, “Antimicrobial activity of prulifloxacin tested against a worldwide collection of gastroenteritis-producing pathogens, including those causing traveler's diarrhea” (2009)
Values after ≈ are worked out from the molar mass of the structure shown.

Assays:
Salmonella paratyphi = assay: Antibacterial activity against Salmonella enterica serovar Paratyphi by broth microdilution method; format: functional, Salmonella enterica subsp. enterica serovar Paratyphi A
[1] = Antibacterial activity against Salmonella enterica serovar Virchow by broth microdilution method; format: functional, Salmonella enterica subsp. enterica serovar Virchow
Escherichia coli [2] = assay: Antibacterial activity against enteroaggregative Escherichia coli assessed as percent resistant isolates by broth microdilution method; format: functional
Escherichia coli [3] = assay: Antibacterial activity against Escherichia coli assessed as growth inhibition at 0.12 ug/ml by broth microdilution method; format: functional
Vibrio fluvialis = assay: Antibacterial activity against Vibrio fluvialis assessed as percent susceptible isolates by broth microdilution method; format: functional
Yersinia sp. [4] = assay: Antibacterial activity against Yersinia sp. assessed as growth inhibition at 0.008 ug/ml by broth microdilution method; format: functional; conditions: Yersinia sp. (in: enterobacteria)
Aeromonas sp. [5] = assay: Antibacterial activity against Aeromonas sp. assessed as growth inhibition at 2 ug/ml by broth microdilution method; format: functional
Vibrio alginolyticus [6] = assay: Antibacterial activity against Vibrio alginolyticus by broth microdilution method; format: functional
Campylobacter sp. [7] = assay: Antibacterial activity against Campylobacter sp. assessed as growth inhibition at 2 ug/ml by broth microdilution method; format: functional
Aeromonas sp. [8] = assay: Antibacterial activity against Aeromonas sp. assessed as growth inhibition at 0.06 ug/ml by broth microdilution method; format: functional
Escherichia coli [9] = assay: microbe, parasite or virus in culture; format: functional
Vibrio cholerae [10] = assay: Antibacterial activity against Vibrio cholerae assessed as percent resistant isolates by broth microdilution method; format: functional
Aeromonas caviae [11] = assay: Antibacterial activity against Aeromonas caviae by broth microdilution method; format: functional
Escherichia coli [12] = assay: Antibacterial activity against Escherichia coli assessed as growth inhibition at 0.016 ug/ml by broth microdilution method; format: functional
Campylobacter sp. [13] = assay: Antibacterial activity against Campylobacter sp. assessed as growth inhibition at 0.03 ug/ml by broth microdilution method; format: functional
Aeromonas caviae [14] = assay: Antibacterial activity against Aeromonas caviae assessed as percent resistant isolates by broth microdilution method; format: functional
Aeromonas sp. [15] = assay: Antibacterial activity against Aeromonas sp. assessed as growth inhibition at 0.004 ug/ml by broth microdilution method; format: functional
Escherichia coli [16] = assay: Antibacterial activity against Escherichia coli assessed as percent resistant isolates by broth microdilution method; format: functional
Escherichia coli [17] = assay: Antibacterial activity against Escherichia coli assessed as growth inhibition at 2 ug/ml by broth microdilution method; format: functional
Aeromonas veronii = assay: Antibacterial activity against Aeromonas veronii by broth microdilution method; format: functional
Aeromonas caviae [18] = assay: Antibacterial activity against Aeromonas caviae assessed as percent susceptible isolates by broth microdilution method; format: functional
Escherichia coli [19] = assay: Antibacterial activity against Escherichia coli assessed as growth inhibition at 0.004 ug/ml by broth microdilution method; format: functional
Vibrio sp. [20] = assay: Antibacterial activity against Vibrio sp. assessed as percent resistant isolates by broth microdilution method; format: functional
Campylobacter jejuni = assay: Antibacterial activity against Campylobacter jejuni assessed as percent resistant isolates by broth microdilution method; format: functional; conditions: pooled result: one value given for 2 cell lines, strains, targets or settings
Aeromonas sp. [21] = assay: Antibacterial activity against Aeromonas sp. assessed as growth inhibition at =<0.002 ug/ml by broth microdilution method; format: functional
Escherichia coli [22] = assay: Antibacterial activity against enterotoxigenic Escherichia coli by broth microdilution method; format: functional
Escherichia coli [23] = assay: Antibacterial activity against Escherichia coli assessed as growth inhibition at 1 ug/ml by broth microdilution method; format: functional
Campylobacter sp. [24] = assay: Antibacterial activity against Campylobacter sp. assessed as growth inhibition at 0.5 ug/ml by broth microdilution method; format: functional
Plesiomonas shigelloides [25] = assay: Antibacterial activity against Plesiomonas shigelloides by broth microdilution method; format: functional
Escherichia coli [26] = assay: Antibacterial activity against Escherichia coli by broth microdilution method; format: functional
Aeromonas sp. [27] = assay: Antibacterial activity against Aeromonas sp. assessed as growth inhibition at =>4 ug/ml by broth microdilution method; format: functional
Escherichia coli [28] = assay: Antibacterial activity against Escherichia coli by broth microdilution method in presence of sulfamethoxazolee; format: functional
Aeromonas sobria = assay: Antibacterial activity against Aeromonas sobria assessed as percent susceptible isolates by broth microdilution method; format: functional
Escherichia coli [29] = assay: Antibacterial activity against Escherichia coli assessed as growth inhibition at 0.03 ug/ml by broth microdilution method; format: functional
Vibrio sp. [30] = assay: Antibacterial activity against Vibrio sp. assessed as percent susceptible isolates by broth microdilution method; format: functional
Aeromonas hydrophila = assay: Antibacterial activity against Aeromonas hydrophila assessed as percent resistant isolates by broth microdilution method; format: functional
Vibrio vulnificus = assay: Antibacterial activity against Vibrio vulnificus assessed as percent susceptible isolates by broth microdilution method; format: functional
Campylobacter sp. [31] = assay: Antibacterial activity against Campylobacter sp. assessed as growth inhibition at 0.12 ug/ml by broth microdilution method; format: functional
Escherichia coli [32] = assay: Antibacterial activity against Escherichia coli assessed as growth inhibition at 0.06 ug/ml by broth microdilution method; format: functional
Vibrio cholerae [33] = assay: Antibacterial activity against Vibrio cholerae assessed as percent susceptible isolates by broth microdilution method; format: functional
Aeromonas sp. [34] = assay: Antibacterial activity against Aeromonas sp. assessed as growth inhibition at 0.008 ug/ml by broth microdilution method; format: functional
Escherichia coli [35] = assay: Antibacterial activity against enteropathogenic Escherichia coli assessed as percent resistant isolates by broth microdilution method; format: functional
Yersinia sp. [36] = assay: Antibacterial activity against Yersinia sp. assessed as growth inhibition at 0.03 ug/ml by broth microdilution method; format: functional; conditions: Yersinia sp. (in: enterobacteria)
Shigella sonnei = assay: Antibacterial activity against Shigella sonnei by broth microdilution method; format: functional
Campylobacter sp. [37] = assay: Antibacterial activity against Campylobacter sp. assessed as growth inhibition at 1 ug/ml by broth microdilution method; format: functional
Shigella sp. = assay: Antibacterial activity against Shigella sp. assessed as growth inhibition at 0.016 ug/ml by broth microdilution method; format: functional
Vibrio sp. [38] = assay: Antibacterial activity against Vibrio sp. by broth microdilution method; format: functional
Yersinia enterocolitica = assay: Antibacterial activity against Yersinia enterocolitica by broth microdilution method; format: functional
Vibrio alginolyticus [39] = assay: Antibacterial activity against Vibrio alginolyticus assessed as percent resistant isolates by broth microdilution method; format: functional
Yersinia sp. [40] = assay: Antibacterial activity against Yersinia sp. assessed as growth inhibition at 0.004 ug/ml by broth microdilution method; format: functional; conditions: Yersinia sp. (in: enterobacteria)
Plesiomonas shigelloides [41] = assay: Antibacterial activity against Plesiomonas shigelloides assessed as growth inhibition at =<0.002 ug/ml by broth microdilution method; format: functional
Plesiomonas shigelloides [42] = assay: Antibacterial activity against Plesiomonas shigelloides assessed as percent resistant isolates by broth microdilution method; format: functional
[43] = Escherichia coli, read-out: MIC50
[44] = Escherichia coli, read-out: MIC90

CC1Sc2c(C(=O)O)c(=O)c3cc(F)c(N4CCNCC4)cc3n21 (stereo unspecified) [ULIFLOXACIN]
MIC50 (Salmonella paratyphi): 8 ng/mL (≈ 0.0229 µM) | MIC90 (Salmonella paratyphi): 30 ng/mL (≈ 0.0859 µM) | MIC50 [1]: 8 ng/mL (≈ 0.0229 µM) | MIC90 [1]: 30 ng/mL (≈ 0.0859 µM) | Activity (Escherichia coli [2]): 0% | inhibition at 0.12 µg/mL (Escherichia coli [3]): 97% | Activity (Vibrio fluvialis): 100% | inhibition at 0.008 µg/mL (Yersinia sp. [4]): 56% | inhibition at 2 µg/mL (Aeromonas sp. [5]): 98% | MIC50 (Vibrio alginolyticus [6]): 16 ng/mL (≈ 0.0458 µM) | MIC90 (Vibrio alginolyticus [6]): 30 ng/mL (≈ 0.0859 µM) | inhibition at 2 µg/mL (Campylobacter sp. [7]): 85% | inhibition at 0.06 µg/mL (Aeromonas sp. [8]): 92% | MIC50 (Escherichia coli [9]): 8 ng/mL (≈ 0.0229 µM) | MIC90 (Escherichia coli [9]): 8 ng/mL (≈ 0.0229 µM) | MIC50 (Escherichia coli [9]; [43]): 8 ng/mL (≈ 0.0229 µM) | MIC90 (Escherichia coli [9]; [44]): 8 ng/mL (≈ 0.0229 µM) | Activity (Vibrio cholerae [10]): 0% | MIC50 (Aeromonas caviae [11]): 4 ng/mL (≈ 0.0114 µM) | MIC90 (Aeromonas caviae [11]): 60 ng/mL (≈ 0.172 µM) | inhibition at 0.016 µg/mL (Escherichia coli [12]): 94% | inhibition at 0.03 µg/mL (Campylobacter sp. [13]): 61% | Activity (Aeromonas caviae [14]): 2% | inhibition at 0.004 µg/mL (Aeromonas sp. [15]): 55% | Activity (Escherichia coli [16]): 3% | inhibition at 2 µg/mL (Escherichia coli [17]): 97% | MIC50 (Aeromonas veronii): 4 ng/mL (≈ 0.0114 µM) | MIC90 (Aeromonas veronii): 60 ng/mL (≈ 0.172 µM) | Activity (Aeromonas caviae [18]): 98% | inhibition at 0.004 µg/mL (Escherichia coli [19]): 27% | Activity (Vibrio sp. [20]): 0% | Activity (Campylobacter jejuni): 14.7% | inhibition (INH) (Aeromonas sp. [21]): 16% | MIC (Escherichia coli [22]): 4 ng/mL (≈ 0.0114 µM) | MIC50 (Escherichia coli [22]): 4 ng/mL (≈ 0.0114 µM) | MIC90 (Escherichia coli [22]): 8 ng/mL (≈ 0.0229 µM) | MIC (Escherichia coli [22]; Escherichia coli, read-out: MIC): 4 ng/mL (≈ 0.0114 µM) | MIC50 (Escherichia coli [22]; [43]): 4 ng/mL (≈ 0.0114 µM) | MIC90 (Escherichia coli [22]; [44]): 8 ng/mL (≈ 0.0229 µM) | inhibition at 1 µg/mL (Escherichia coli [23]): 97% | inhibition at 0.5 µg/mL (Campylobacter sp. [24]): 83% | MIC (Plesiomonas shigelloides [25]): 4 ng/mL (≈ 0.0114 µM) | MIC50 (Plesiomonas shigelloides [25]): 4 ng/mL (≈ 0.0114 µM) | MIC50 (Escherichia coli [26]): 8 ng/mL (≈ 0.0229 µM) | MIC90 (Escherichia coli [26]): 8 ng/mL (≈ 0.0229 µM) | inhibition (INH) (Aeromonas sp. [27]): 100% | Activity (Escherichia coli [28]): 4.8% | Activity (Aeromonas sobria): 98% | inhibition at 0.03 µg/mL (Escherichia coli [29]): 96% | Activity (Vibrio sp. [30]): 100% | Activity (Aeromonas hydrophila): 2% | Activity (Vibrio vulnificus): 100% | inhibition at 0.12 µg/mL (Campylobacter sp. [31]): 82% | inhibition at 0.06 µg/mL (Escherichia coli [32]): 97% | Activity (Vibrio cholerae [33]): 100% | inhibition at 0.008 µg/mL (Aeromonas sp. [34]): 68% | Activity (Escherichia coli [35]): 0% | inhibition at 0.03 µg/mL (Yersinia sp. [36]): 93% | MIC50 (Shigella sonnei): 4 ng/mL (≈ 0.0114 µM) | MIC90 (Shigella sonnei): 8 ng/mL (≈ 0.0229 µM) | inhibition at 1 µg/mL (Campylobacter sp. [37]): 84% | inhibition at 0.016 µg/mL (Shigella sp.): 96% | MIC50 (Vibrio sp. [38]): 16 ng/mL (≈ 0.0458 µM) | MIC90 (Vibrio sp. [38]): 30 ng/mL (≈ 0.0859 µM) | MIC (Yersinia enterocolitica): 8 ng/mL (≈ 0.0229 µM) | MIC50 (Yersinia enterocolitica): 8 ng/mL (≈ 0.0229 µM) | MIC90 (Yersinia enterocolitica): 16 ng/mL (≈ 0.0458 µM) | Activity (Vibrio alginolyticus [39]): 0% | inhibition at 0.004 µg/mL (Yersinia sp. [40]): 0% | inhibition (INH) (Plesiomonas shigelloides [41]): 0% | Activity (Plesiomonas shigelloides [42]): 0%
